# Columns and labels:
# Type in all cases: cell-based, mouse
# [1] = tested on: PPRE-driven luciferase activity; test: PPRE-luciferase assay in Pparb-null astrocytes with PPARγ antagonist GW9662; conditions: for PPRE luciferase activity: Pparb-null astrocytes; for effect of GW9662 on ligand-mediated increase in PPRE-luciferase activity: Pparb-null astrocytes pre-treated with GW9662
# Protocol: FIG. 16A) Pparb-null primary astrocytes plated at 60-70% confluence in 12-well plates were transfected with 0.25 μg of tkPPREx3-Luc (a PPRE-dependent luciferase reporter construct). Twenty-four hours after transfection, cells were treated with different concentrations of GW9662 for 30 min followed by stimulation with rosiglitazone. After 4 h, luciferase activities were assayed. […] After transfection, cells were also treated with GW9662 followed by stimulation with OCT (FIG. 16B), HEX (FIG. 16C) and HMB (FIG. 16D).
# These astrocytes were pre-treated with PPARγ-antagonist GW9662 to nullify the involvement of PPARγ in reporter assay.
# [2] = tested on: PPRE-driven luciferase activity; test: PPRE-luciferase assay in Ppara-null hippocampal neurons transduced with Ppara constructs
# Protocol: Astrocytes plated at 60-70% confluence were transfected with tk-PPREx3-Luc, a PPRE-dependent luciferase reporter construct. After 24 h of transfection, cells were treated with different concentrations of HEX (FIG. 10A), OCT (FIG. 10B) and HMB (FIG. 10C) for 4 h followed by monitoring luciferase activity. Under similar experimental condition, MTT was performed to understand the effect of these ligands on cell viability (FIG. 10D, HEX; FIG. 10E, OCT; FIG. 10F, HMB). Results are mean±SD of three independent experiments. ^ap<0.001 vs. control. Ppara-null astrocytes were transduced with lentivirions containing empty vector (FIG. 10G), FL-Ppara (FIG. 10H), Y314D-Ppara (FIG. 10I), Y464D-Ppara (FIG. 10J), and Y314D/Y464D-Ppara (FIG. 10K) for 48 h followed by transfection with tk-PPREx3-Luc. After 24 h of transfection, cells were treated with different doses of HEX, OCT and HMB for 4 h followed by monitoring luciferase activity. PPRE luciferase activity was assayed in Ppara-null astrocytes transduced with lentivirions containing empty vector (FIG. 10L), FL-Ppara (FIG. 10M), Y314D-Ppara (FIG. 10N), Y464D-Ppara (FIG. 10O), and Y314D/Y464D-Ppara (FIG. 10P) after treatment with different doses of WY14643, fenofibrate, and clofibrate. PPRE luciferase activity was assayed in primary hippocampal neurons transduced with lentivirions containing empty vector (FIG. 10Q), FL-Ppara (FIG. 10R), Y314D-Ppara (FIG. 10S), Y464D-Ppara (FIG. 10T), and Y314D/Y464D-Ppara (FIG. 10U) after treatment with different doses of HEX, OCT and HMB. Results are mean±SD of three independent experiments. ^ap<0.001 vs. control.
# Isolation of Mouse Hippocampal Neurons: Hippocampal neurons were isolated from fetuses (E18) of pregnant female Ppara-null and strain-matched WT littermate mice as described by us^6,13,35-36 with some modifications. Briefly, dissection and isolation procedures were performed in an ice-cold, sucrose buffer solution (sucrose 0.32 M, Tris 0.025 M; pH 7.4)^37. The skin and the skull were carefully removed from the brain by scissors followed by peeling off the meninges by a pair of fine tweezers. Next, a fine incision was made in the middle line around the circle of Willis and medial temporal lobe was opened up. Hippocampus was isolated as a thin slice of tissue located near the cortical edge of medial temporal lobe. Hippocampal tissues isolated from all fetal pups (n>10) were combined together and homogenized with 1 ml of trypsin for 5 minutes at 37° C. followed by neutralization of trypsin. The single cell suspension of hippocampal tissue was plated in the poly-D-lysine pre-coated 75 mm flask. Five min after plating, the supernatants were carefully removed and replaced with complete neurobasal media. The next day, 10 μM AraC was added to remove glial contamination in the neuronal culture. The pure cultures of hippocampal neurons were allowed to differentiate fully for 9-10 days before treatment^35,36,38.
# [3] = tested on: Ppara-null hippocampal neurons; test: Dendritic spine density (phalloidin) in transduced Ppara-null hippocampal neurons; conditions: lenti-FL-Ppara
# Protocol: (§1) Ppara-null hippocampal neurons were transduced with lentivirions containing GFP (vector), FL-Ppara, and Y464D-Ppara for 48 h followed by treatment with vehicle (DMSO) (FIG. 11A), OCT (FIG. 11B), HEX (FIG. 11C), HMB (FIG. 11D), and WY14643 (FIG. 11E) for 24 h. Then neurons were stained for phalloidin to measure spine density. FIG. 11F) A representative picture of dendrite with spines (Cyan color) used for counting area of spine heads. Area of spine heads (FIG. 11G) and number of spines (FIG. 11H) in 10 μm of dendrites. Results are mean±SEM of 5 neurons per group. ^ap<0.05 vs vector only; ^bp<0.05 vs FL-Ppara. AMPA-driven calcium influx was measured in OCT (red), HEX (green) and HMB (purple)-treated Ppara-null hippocampal neurons transduced with lentivirions containing FL-Ppara (FIG. 11I), Y314D-Ppara (FIG. 11J), Y464D-Ppara (FIG. 11K), and Y314D/Y464D-Ppara (FIG. 11L). All neurons were treated with 50 μM of NMDA receptor antagonist N20C to inhibit passive calcium flow through NMDA receptor. (FIG. 11M-P) Similarly NMDA-driven calcium influx was measured in the lentivius-infected Ppara-null hippocampal neurons in the presence of different endogenous ligands. In these cases, Naspm-HCl was treated to stop the passive flow of calcium currents through AMPA receptor. Results are mean of three independent experiments.
# Dendritic spines are the crucial mediators of synaptic transmission among central neurons and often serve as a primary candidate for the long term morphological substrates of neuronal plasticity^12,13. Therefore, the effect of these ligands on the increase of spine density in cultured hippocampal neurons was studied. Briefly, mouse Ppara-null hippocampal neurons were transduced with lentivirus containing empty vector, FL-Ppara, or Y464D-Ppara for a week followed by the treatment with OCT, HEX, and HMB for four more days. After that, neurons were labelled with phalloidin to monitor the spine density. […] This observation was further validated by measuring the area of spine heads (FIG. 11F-G) and number of spines (FIG. 11H) in HEX, OCT, and HMB-treated Ppara-null neurons. HEX (FIG. 17G-H), OCT (FIG. 17I-J) and HMB (FIG. 17K-L) stimulated the expression of CREB in Ppara-null hippocampal neurons that were transduced with lentivirons containing the FL-Ppara gene.
# Hippocampal regions were dissected from 18-day-old embryonic fetus as described elsewhere (PMID: 25007337), combined and plated in poly-D-lysine coated plate for another 2-3 weeks for branching. After that, these neurons were transduced with GFP-containing lentivirions for 2 d. Neurons were stained with Dylight-554-conjugated phalloidin (Cat #21834; Thermofisher) as per manufactures protocol and visualized in fluorescence microscope. […]
# [4] = tested on: NMDA-driven calcium influx; test: NMDA-driven calcium influx in transduced Ppara-null hippocampal neurons
# Protocol: as §1
PPRE luciferase activity [1],effect of GW9662 on ligand-mediated increase in PPRE-luciferase activity [1],PPRE-luciferase activity ([2]; lenti-Y314D/Y464D-Ppara),PPRE-luciferase activity ([2]; lenti-Y464D-Ppara),SMILES,density of spines [3],NMDA-mediated calcium influx ([4]; lenti-FL-Ppara),NMDA-mediated calcium influx ([4]; lenti-Y314D-Ppara),NMDA-mediated calcium influx ([4]; lenti-Y314D/Y464D-Ppara),NMDA-mediated calcium influx ([4]; lenti-Y464D-Ppara)
markedly increased,remained unable to inhibit,completely abrogated,completely abrogated,"CCCCCCCCCCCCCCCC(N)=O [HEX, hexadecanamide]",stimulated,stimulated,partially restore,remained unable to increase,remained unable to increase
markedly increased,remained unable to inhibit,completely abrogated,completely abrogated,CCOC(=O)C(C)(C)C(C)O (stereo not drawn) [HMB],stimulated,stimulated,partially restore,remained unable to increase,remained unable to increase
markedly increased,remained unable to inhibit,completely abrogated,completely abrogated,"CCCCCCCCC=CCCCCCCCC(N)=O [OCT, 9-octadecenamide]",stimulated,stimulated,partially restore,remained unable to increase,remained unable to increase

# From US10617664B2, “Brain derived PPARα ligands” (Rush University Medical Center, priority 2015, dated 2020)
